The target of test [1] is T1, Class 1 histone deacetylase (Homo sapiens) (UniProt Q13547+O15379+Q92769+Q9BY41). The test can be described thus: Inhibition of class 1 HDAC in human MCF7 cells assessed as increase in histone H4 acetylation at 10 uM measured after 8 hrs by Western blot analysis. It is filed as cell-based. Background: In western blotting, separated proteins are transferred to a membrane and probed.

The target of the next test is T2, Histone deacetylase 7 (Homo sapiens, UniProt Q8WUI4).
T2 sequence (Q8WUI4 whole entry): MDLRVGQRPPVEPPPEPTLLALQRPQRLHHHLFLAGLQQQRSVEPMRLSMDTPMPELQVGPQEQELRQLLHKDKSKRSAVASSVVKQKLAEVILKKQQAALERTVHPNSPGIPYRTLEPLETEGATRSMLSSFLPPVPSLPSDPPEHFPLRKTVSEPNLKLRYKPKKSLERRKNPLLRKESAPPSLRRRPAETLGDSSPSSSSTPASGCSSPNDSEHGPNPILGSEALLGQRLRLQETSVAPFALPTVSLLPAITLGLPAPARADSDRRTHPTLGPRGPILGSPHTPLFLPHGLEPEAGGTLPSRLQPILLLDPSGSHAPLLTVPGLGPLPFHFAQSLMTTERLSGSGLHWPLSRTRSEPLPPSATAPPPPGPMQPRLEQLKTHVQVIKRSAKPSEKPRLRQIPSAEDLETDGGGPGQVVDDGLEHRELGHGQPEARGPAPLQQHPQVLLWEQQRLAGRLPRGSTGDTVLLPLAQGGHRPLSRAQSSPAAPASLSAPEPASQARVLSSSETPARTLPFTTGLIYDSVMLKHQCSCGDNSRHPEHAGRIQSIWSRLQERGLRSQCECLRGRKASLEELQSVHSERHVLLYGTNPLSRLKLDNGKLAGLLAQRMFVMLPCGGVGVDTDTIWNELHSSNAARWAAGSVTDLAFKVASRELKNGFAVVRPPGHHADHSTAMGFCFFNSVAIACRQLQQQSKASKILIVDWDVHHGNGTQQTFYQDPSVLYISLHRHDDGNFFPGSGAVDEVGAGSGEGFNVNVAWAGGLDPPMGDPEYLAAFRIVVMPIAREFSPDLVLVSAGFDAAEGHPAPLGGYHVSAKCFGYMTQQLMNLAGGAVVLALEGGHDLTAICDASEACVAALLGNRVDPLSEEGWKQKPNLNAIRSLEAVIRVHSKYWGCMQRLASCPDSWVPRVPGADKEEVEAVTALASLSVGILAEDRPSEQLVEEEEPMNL
The test is described as follows: Inhibition of human N-terminal GST tagged HDAC7 (518 to end residues) expressed in baculovirus infected Sf9 insect cells using Boc-Lys(acetyl)-AMC as fluorogenic substrate measured after 1 hr by flourescence plate reader method.

The target in test [2] is T1, Class 1 histone deacetylase (Homo sapiens). The test can be described thus: Inhibition of class 1 HDAC in human K562 cells assessed as increase in histone H4 acetylation at 10 uM measured after 8 hrs by Western blot analysis. The test is classed as cell-based.
In another test the test system is HepG2. The test is described as follows: cells. The test is classed as functional. As to conditions: Homo sapiens, time 48 hrs.
Test [3] deals with T1, Class 1 histone deacetylase (Homo sapiens). The test is described as follows: Inhibition of class 1 HDAC in human K562 cells assessed as increase in histone H3 acetylation at 10 uM measured after 8 hrs by Western blot analysis. It is filed as cell-based.
The target in the next test is Histone deacetylase 5 (Homo sapiens, UniProt Q9UQL6). The test can be described thus: Inhibition of human HDAC5 using Boc-Lys(acetyl)-AMC as fluorogenic substrate measured after 1 hr by flourescence plate reader method.
Sequence of Histone deacetylase 5 (Q9UQL6 whole entry): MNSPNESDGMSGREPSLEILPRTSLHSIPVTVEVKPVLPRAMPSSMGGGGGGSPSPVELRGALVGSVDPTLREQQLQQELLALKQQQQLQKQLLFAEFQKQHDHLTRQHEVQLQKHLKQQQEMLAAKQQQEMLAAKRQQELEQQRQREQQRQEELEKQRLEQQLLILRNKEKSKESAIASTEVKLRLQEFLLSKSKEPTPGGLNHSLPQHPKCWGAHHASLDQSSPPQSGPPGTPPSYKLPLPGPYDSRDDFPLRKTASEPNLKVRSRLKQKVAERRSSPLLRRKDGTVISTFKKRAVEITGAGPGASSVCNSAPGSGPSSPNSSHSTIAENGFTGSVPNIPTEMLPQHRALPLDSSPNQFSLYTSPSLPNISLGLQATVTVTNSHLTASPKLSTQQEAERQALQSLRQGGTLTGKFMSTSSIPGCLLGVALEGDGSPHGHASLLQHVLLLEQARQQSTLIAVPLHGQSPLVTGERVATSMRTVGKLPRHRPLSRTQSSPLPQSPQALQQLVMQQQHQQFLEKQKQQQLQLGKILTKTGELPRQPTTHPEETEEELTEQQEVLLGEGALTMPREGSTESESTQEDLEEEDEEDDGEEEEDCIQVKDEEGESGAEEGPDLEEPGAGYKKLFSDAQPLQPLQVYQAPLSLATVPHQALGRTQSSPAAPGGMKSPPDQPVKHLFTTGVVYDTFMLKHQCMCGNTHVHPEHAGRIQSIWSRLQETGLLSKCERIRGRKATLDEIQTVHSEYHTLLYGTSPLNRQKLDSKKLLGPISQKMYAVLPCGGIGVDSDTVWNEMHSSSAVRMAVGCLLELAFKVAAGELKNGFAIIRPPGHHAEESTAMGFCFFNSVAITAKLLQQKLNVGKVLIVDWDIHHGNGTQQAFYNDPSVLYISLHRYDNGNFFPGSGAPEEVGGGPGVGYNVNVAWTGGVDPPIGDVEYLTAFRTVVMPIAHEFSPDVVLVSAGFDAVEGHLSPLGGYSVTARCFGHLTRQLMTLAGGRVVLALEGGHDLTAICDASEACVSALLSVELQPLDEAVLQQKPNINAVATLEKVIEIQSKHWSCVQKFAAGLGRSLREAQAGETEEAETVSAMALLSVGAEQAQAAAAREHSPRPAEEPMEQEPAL
A further test deals with K562. The test is described as follows: cells. As to conditions: Homo sapiens, time 48 hrs. It is filed as functional.
A further test addresses T3, Histone deacetylase 8 (Homo sapiens, UniProt Q9BY41).
T3 sequence (Q9BY41 whole entry): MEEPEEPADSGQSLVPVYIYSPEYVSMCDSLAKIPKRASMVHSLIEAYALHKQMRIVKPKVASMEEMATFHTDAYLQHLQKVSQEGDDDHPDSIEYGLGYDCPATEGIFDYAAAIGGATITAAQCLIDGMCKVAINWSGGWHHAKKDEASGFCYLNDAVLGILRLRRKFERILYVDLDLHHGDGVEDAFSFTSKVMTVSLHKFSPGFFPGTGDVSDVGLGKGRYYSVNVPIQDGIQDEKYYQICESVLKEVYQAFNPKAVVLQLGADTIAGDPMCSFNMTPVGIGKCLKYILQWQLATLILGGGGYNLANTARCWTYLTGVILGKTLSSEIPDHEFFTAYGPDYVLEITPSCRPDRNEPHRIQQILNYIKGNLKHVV
The test is described as follows: Inhibition of full length human C-terminal His-tagged HDAC8 expressed in baculovirus infected Sf9 insect cells using Boc-Lys(acetyl)-AMC as fluorogenic substrate measured after 1 hr by flourescence plate reader method.

In the next test the test system is A549. The test is described as follows: cells. It is filed as functional. As to conditions: Homo sapiens, time 48 hrs.

Calls of active or inactive are those of the source. The rule behind the calls is not given here. Some results are limits rather than exact numbers.

T1 sequence (O15379 whole entry, looked up, one chain of several): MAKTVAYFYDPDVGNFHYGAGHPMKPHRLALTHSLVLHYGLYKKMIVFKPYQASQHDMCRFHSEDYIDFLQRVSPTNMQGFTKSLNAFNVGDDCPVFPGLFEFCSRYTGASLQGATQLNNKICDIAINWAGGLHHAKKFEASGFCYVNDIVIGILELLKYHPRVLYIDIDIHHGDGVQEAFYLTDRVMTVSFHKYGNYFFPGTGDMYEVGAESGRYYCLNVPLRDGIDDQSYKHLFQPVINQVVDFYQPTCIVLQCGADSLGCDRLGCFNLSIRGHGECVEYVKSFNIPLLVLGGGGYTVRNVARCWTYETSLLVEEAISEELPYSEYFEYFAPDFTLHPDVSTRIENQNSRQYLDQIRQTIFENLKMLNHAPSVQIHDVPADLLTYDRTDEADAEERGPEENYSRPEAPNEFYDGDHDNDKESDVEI
T1 sequence (Q13547 whole entry, looked up, one chain of several): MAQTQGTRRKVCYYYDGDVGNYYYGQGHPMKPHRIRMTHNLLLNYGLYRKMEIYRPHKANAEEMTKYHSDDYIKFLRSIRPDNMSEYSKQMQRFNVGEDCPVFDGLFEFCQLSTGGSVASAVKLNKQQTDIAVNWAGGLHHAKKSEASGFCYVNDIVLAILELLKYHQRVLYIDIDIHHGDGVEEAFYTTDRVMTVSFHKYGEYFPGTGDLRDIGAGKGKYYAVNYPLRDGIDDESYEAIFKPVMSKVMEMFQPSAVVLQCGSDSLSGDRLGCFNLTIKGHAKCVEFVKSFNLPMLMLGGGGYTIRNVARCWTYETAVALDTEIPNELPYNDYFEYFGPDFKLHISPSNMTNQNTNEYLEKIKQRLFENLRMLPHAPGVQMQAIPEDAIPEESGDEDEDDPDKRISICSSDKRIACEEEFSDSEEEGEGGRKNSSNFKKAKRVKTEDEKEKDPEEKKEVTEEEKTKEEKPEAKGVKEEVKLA
T1 sequence (Q92769 whole entry, looked up, one chain of several): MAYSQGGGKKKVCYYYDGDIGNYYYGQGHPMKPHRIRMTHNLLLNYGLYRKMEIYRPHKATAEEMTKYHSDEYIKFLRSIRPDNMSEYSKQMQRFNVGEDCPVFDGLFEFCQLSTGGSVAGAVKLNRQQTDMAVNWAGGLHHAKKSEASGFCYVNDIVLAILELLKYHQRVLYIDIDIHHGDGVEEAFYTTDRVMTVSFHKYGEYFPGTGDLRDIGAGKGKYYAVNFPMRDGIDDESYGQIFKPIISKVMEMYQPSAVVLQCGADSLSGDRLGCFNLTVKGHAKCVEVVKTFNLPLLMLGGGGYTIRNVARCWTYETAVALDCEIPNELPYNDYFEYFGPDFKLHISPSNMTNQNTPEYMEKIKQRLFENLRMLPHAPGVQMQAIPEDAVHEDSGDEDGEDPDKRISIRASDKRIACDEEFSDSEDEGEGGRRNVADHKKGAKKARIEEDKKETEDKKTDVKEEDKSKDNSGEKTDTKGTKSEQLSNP
Description for A549: Antiproliferative activity against human A549 cells assessed as inhibition of cell proliferation incubated for 48 hrs by CCK8 assay
Description for HepG2: Antiproliferative activity against human HepG2 cells assessed as inhibition of cell proliferation incubated for 48 hrs by CCK8 assay
Description for K562: Antiproliferative activity against human K562 cells assessed as inhibition of cell proliferation incubated for 48 hrs by CCK8 assay

Broadly, the IC50 is the concentration that inhibits the measured activity by half. A low value points to greater potency in that assay. What is called GI50 is the concentration that inhibits growth by half. For `O=C(CCCSC[C@H](NC(=O)OCc1ccccc1)C(=O)Nc1cccc2ccccc12)NO`, the inhibition result in [1], in test [2] and in test [3] was “Active” throughout. In addition, the IC50 at Histone deacetylase 7, against Histone deacetylase 5 and at Histone deacetylase 8 was > 200 nM each time. The 50% growth inhibitory concentration (GI50) in the test on HepG2 amounted to 4500 nM; in the test on K562 it was 2000 nM; in the test with A549 it was 5300 nM.
Regarding `O=C(CCCSC[C@H](NC(=O)OCc1ccccc1)C(=O)Nc1ccccc1)NO`, the inhibition entry in test [1], in [2] and in [3] was “Active” in each case. For the same compound, the half-maximal inhibitory concentration (IC50) against Histone deacetylase 7, against Histone deacetylase 5 and on Histone deacetylase 8 was > 200 nM throughout. The figures for the concentration for 50% growth inhibition (GI50) in the test on HepG2, in the test on K562 and in the test with A549 were 7300 nM, 1700 nM and 3500 nM, respectively.
Consider `O=C(CCCSC[C@H](NC(=O)c1ccccc1)C(=O)Nc1ccccc1)NO`, for which the inhibition entry in [1], in test [2] and in test [3] was “Active” in each case. For the same compound, the IC50 against Histone deacetylase 7, against Histone deacetylase 5 and against Histone deacetylase 8 was > 200 nM each time. The GI50 with HepG2 came to 6200 nM; in the test on K562, 1400 nM; with A549, 4700 nM.

These data come from ChEMBL document CHEMBL5055644, “Cysteine derivatives as acetyl lysine mimics to inhibit zinc-dependent histone deacetylases for treating cancer” (Eur J Med Chem, 2021).
